Results from patent EP0872233A1, “Antiretroviral compositions with improved bioavailability” (JANSSEN PHARMACEUTICA N.V., priority 1997, dated 1998).

Key:
[1] = in vivo
[2] = thermal stability at melt-extrusion temperatures; assay type: physicochemical; conditions: temperatures up to 300°C
Experimental: One of the most important parameters of melt extrusion is the temperature at which the melt-extruder is operating. […] At temperatures lower than 120°C, loviride will not dissolve sufficiently in most water-soluble polymers and the extrudate will not have the required bioavailability. In addition, the process is difficult because of the high viscosity of the mixture. At temperatures of more than 300°C the water-soluble polymer may decompose to an unacceptable level.

solubility in water = assay type: physicochemical; conditions: room temperature, pH of 6.5, racemic free base
[3] = design: AUClast: dose or concentration left out as unconfirmed; conditions: for Cmax: human, in vivo, po, 100 mg
Experimental: In this study 12 healthy volunteers in fasting conditions were administered a tablet of example 1 (100 mg loviride). Plasma levels of each of the loviride enantiomers were determined and the following bioavailability data were calculated therefrom.

| half-life [1] | thermal stability [2] | solubility (solubility in water) | AUClast [3] | Cmax [3] [ng/mL] | Compound |
| --- | --- | --- | --- | --- | --- |
| short | thermally very stable | less than 0.1 mg/100ml |  |  | CC(=O)c1ccc(C)cc1NC(C(N)=O)c1c(Cl)cccc1Cl (racemic) [loviride, (±)-α-[(2-acetyl-5-methylphenyl)amino]-2,6-dichlorobenzeneacetamide] |
|  |  |  | 18,180 ± 7,197 ng.h/ml | 890 ± 292 | CC(=O)c1ccc(C)cc1NC(C(N)=O)c1c(Cl)cccc1Cl (single isomer, unassigned; (+)) [(+)-loviride] |
|  |  |  | 1,347 ± 512 ng.h/ml | 155 ± 66 | CC(=O)c1ccc(C)cc1NC(C(N)=O)c1c(Cl)cccc1Cl (single isomer, unassigned; (-)) [(-)-loviride] |
